Broadly, the EC50 is the concentration giving half of the maximal effect.

Consider two molecules from patent publication US20020002269A1, “ARTEMIN, A NEUROTROPHIC FACTOR” (priority 1998, published 2002).

Assay [1] has as its system dorsal root ganglion (DRG) neurons. The assay can be described thus: Survival of cultured dorsal root ganglion neurons. It counts as cell-based, rat. How it is done: (§1) Each GDNF ligand family member consisted of the human mature amino acid sequence and was produced by standard recombinant DNA methods. Recombinant GDNF, neurturin and persephin were obtained from Genentech while recombinant artemin was produced as described in Example 3.
(§2) The cultures were performed using standard methods described elsewhere (Kotzbauer et al., Neuron 12:763-773, 1994; Kotzbauer et al., Nature 384:467-470, 1996; Milbrandt et al., Neuron 20:245-253, 1998). In brief, for SCG neurons, after dissection and dissociation, neurons were plated on collagen-coated 24-well tissue culture plates and maintained in NGF-containing medium (AM50) for 5 days, after which they were either kept in AM50 or switched to medium containing neutralizing anti-NGF antibodies plus GDNF, neurturin, persephin, artemin, (50 ng/ml where not noted otherwise), or no growth factors. Cultures were maintained for 3 days, after which they were fixed in 4% paraformaldehyde and stained with toluidine blue, and surviving neurons were counted. For nodose ganglion and dorsal root ganglion neuron cultures, dissociated neurons were plated directly into NGF (for dorsal root ganglia), or BDNF (for nodose ganglia, 100 ng/ml) or one of the GDNF ligands in serum-containing medium (AM50 with anti-NGF antibodies), and cells surviving after 3 days in culture were counted as above. Trigeminal ganglia were dissected, dissociated, and plated directly into medium containing NGF or the indicated GDNF ligands, and the number of surviving cells was assessed after 3 days in vitro. For all culture systems, 2-3 independent experiments were performed.

Assay [2] has as its system trigeminal ganglion (TG) neurons. The assay can be described thus: Survival of cultured trigeminal ganglion neurons. It counts as cell-based, rat. As to conditions: 50 ng/ml, FIG. 7C; for survival of TG sensory neurons: 3 days in vitro. How it is done:
as §1, §2

For assay [3], the system named is nodose ganglion (NG) neurons. Briefly: Survival of cultured nodose ganglion neurons. Format: cell-based, rat. The settings on record: FIG. 7D; for survival of NG neurons: 50 ng/ml, 3 days in culture; for survival promotion of NG neurons compared with BDNF: GDNF family ligands 50 ng/ml, BDNF 100 ng/ml. How it is done: as §1, §2
Assay [4] concerns CHP134 neuroblastoma cell line. Briefly: Responsiveness of a neuroblastoma cell line that does not express RET (CHP134). As to conditions: data not shown. It counts as cell-based.
In assay [5] the test system is SAN neuroblastoma cell line. Briefly: Responsiveness of a neuroblastoma cell line that does not express RET (SAN). It counts as cell-based. The settings on record: data not shown.
The subject of assay [6] is GFRα1-Fc. Briefly: Direct binding of soluble GFRα1-Fc receptor body to plate-coated ligand. The settings on record: ligand coated at 325 ng/ml, absence of RET, FIG. 9C. How it is done: To investigate which if any of the known coreceptor(s) artemin can utilize to activate RET, its ability to directly bind to soluble Fc-fusion forms of GFRα1, GFRα2, or GFRα3 was assessed. GFRα1-Fc, GFRα2-Fc and GFRα3-Fc fusion proteins were obtained from R&D Systems. Binding assays were performed similarly to assays previously described (Sanicola et al., Proc. Natl. Acad. Sci., USA 94:6238-6243, 1997). Recombinant GDNF, neurturin, artemin, persephin, or purified bovine serum albumin (BSA; Pierce) were coated to Nunc-Immuno MaxiSorp microtiter plates at 325 ng/ml in TBS (10 mM Tris-HCl pH 7.5, 150 mM NaCl) for 1 hour at 25° C. Plates were washed (3× in TBS/0.03% Tween-20), and then blocked (blocking solution: TBS/1% BSA) for 1 hr at 25° C. Receptor bodies diluted in blocking solution were added and incubated for 2 hr at 25° C., washed 5X, then incubated with 1:10,000 dilution of HRP-conjugated anti-human Fc antibodies in blocking solution (Jackson Immunoresearch) for 45 minutes at 25° C. Finally, wells were washed 5× and the presence of HRP was assayed by addition of the chromogenic substrate 3,3, 5,5-tetramethylbenzidine for 5 min. The reaction was stopped by adding an equal volume of 0.5M H2SO4, and color was measured in a plate reader at 450 nm. Non-specific binding of receptor bodies to the plates was measured in BSA coated wells, and this binding was subtracted from all other measurements.

Assay [7] concerns NLF cells transformed with GFRα3. The assay can be described thus: Ga14-Elk/Ga14-Luc reporter in NLF neuroblastoma cells transformed with GFRα3. The settings on record: factor for 24 hours, low-serum medium, FIG. 10B. Format: cell-based. How it is done:
Thus, to directly test which receptor combinations can form functional receptors for artemin, expression plasmids for the individual GFRA coreceptors together with the Ga14-Elk/Ga14-Luc reporter system were transiently transformed into fibroblasts that stably express RET. […]
NLF neuroblastoma cells, which naturally express GFRα2/RET (Tansey et al., submitted), or the RET-3T3 cells were plated at 85,000 cells/well in 12-well plates, and cotransfected with the reporter plasmids Ga14-Luc and CMV-Ga14-Elk (250 ng/well and 50 ng/well, respectively), CMV-lacZ (50 ng/well) for transfection normalization, one of the CMV-GFRA expression plasmids (500 ng/well), and pBluescript (650 ng/well) as carrier for a total of 1.5 μg DNA/well using the Superfect reagent (Qiagen) according to the manufacturer's instructions. […] Measurement of luciferase and β-galactosidase activity was measured using a luminometer and performed as described (Svaren et al., EMBO J 17:6010-6019, 1998). The average luciferase activity of duplicate samples was normalized to β-galactosidase activity of the cotransformed lacZ reporter, and fold activation was calculated by dividing the normalized activity in factor-treated cells by that in the no treatment control.

Where [8] appears, read: 50 ng/ml, 3 days in culture, FIG. 7A.

In the case of “artemin: recombinant mature human artemin (FIG. 3A, SEQ ID NO:3) with 8-histidine tag, produced in E. coli; GDNF family neurotrophic factor”, the “survival of DRG sensory neurons” value in assay [1] (setting [8]) is reported as “supported the survival of a subset of sensory neurons”. In assay [1] (50 ng/ml, FIG. 7A), the “number of DRG neurons supported compared with GDNF or neurturin” value is “supported a larger number of neurons than GDNF or neurturin”. For the same molecule, the “EC50 of survival promoting effect on DRG neurons” value in assay [1] (dose response, P1 rat DRG neurons, 3 days in culture, FIG. 7B) lay within 1 to 3 ng/mL. Moreover, the EC50 in assay [1] (dose response, P1 rat DRG neurons, molar figure, FIG. 7B, read-out: EC50 of survival promoting effect on DRG neurons) is roughly 0.1 nM. Also, in assay [2], the “survival of TG sensory neurons” value is given as “supported the survival of a subset of sensory neurons”, the “number of TG neurons supported compared with GDNF or neurturin” value is given as “supported a larger number of neurons than GDNF or neurturin” and the “number of TG neurons supported compared with NGF” value is listed as “a greater number (TG)”. In addition, in assay [3], the “survival of NG neurons” value is “supported similar numbers of NG neurons” and the “survival promotion of NG neurons compared with BDNF” value was “equal or greater survival promotion than BDNF”. Further, in assay [4], the “response of CHP134 cells” value is “did not respond”. Moreover, in assay [5], the “response of SAN cells” value is “did not respond”. Besides, in assay [6], the “direct binding of GFRα1-Fc” value is “not to persephin or artemin”. Further, the “response of NLF cells transformed with GFRα3 (luciferase reporter)” value in assay [7] is listed as “allowed the cells to respond to artemin stimulation”.

B1: GDNF: recombinant human mature GDNF obtained from Genentech (protein, UniProt P39905 78-211, looked up)
Glial cell line-derived …: SPDKQMAVLPRRERNRQAAAANPENSRGKGRRGQRGKNRGCVLTAIHLNVTDLGLGYETKEELIFRYCSGSCDAAETTYDKILKNLSRNRRLVSDKVGQACCRPIAFDDDLSFLDDNLVYHILRKHSAKRCGCI
As for B1, the “survival of DRG sensory neurons” value in assay [1] (setting [8]) is listed as “supported the survival of a subset of sensory neurons”. The “survival of TG sensory neurons” value in assay [2] was “supported the survival of a subset of sensory neurons”. For the same molecule, in assay [3], the “survival of NG neurons” value was “supported similar numbers of NG neurons” and the “survival promotion of NG neurons compared with BDNF” value is on record as “equal or greater survival promotion than BDNF”. Moreover, in assay [4], the “response of CHP134 cells” value is listed as “did not respond”. For the same molecule, the “response of SAN cells” value in assay [5] is given as “did not respond”. Moreover, in assay [6], the “direct binding of GFRα1-Fc” value was “able to bind to both GDNF and neurturin with similar affinity”. The “response of NLF cells transformed with GFRα3 (luciferase reporter)” value in assay [7] was “decreased the ability of the cells to respond to GDNF”.
